Test results from BigSolDB 2.1.
Where a SMILES comes first, the peptide text is derived from it.

Work on `COC(=O)[C@H](Cc1ccccc1)NC(=O)[C@@H](N)CC(=O)O` (H-Asp-Phe-OMe) yielded a solubility (mole fraction) (in ethanol, 278.15 K) of 3.16e-05, a solubility (mole fraction) (in ethanol, 283.15 K) of 4.53e-05 and a solubility (mole fraction) (in ethanol, 288.15 K) of 6.19e-05. The solubility (mole fraction) (in ethanol, 293.15 K) was 8.48e-05, the solubility (mole fraction) (in ethanol, 298.15 K) was 0.000113 and the solubility (mole fraction) (in ethanol, 303.15 K) was 0.000144. For the same compound, the solubility (mole fraction) (in ethanol, 308.15 K) was 0.000187, the solubility (mole fraction) (in ethanol, 313.15 K) was 0.000236 and the solubility (mole fraction) (in ethanol, 318.15 K) was 0.000291. For the same compound, the solubility (mole fraction) (in ethanol, 323.15 K) was 0.000347, the solubility (mole fraction) (in ethanol, 328.15 K) was 0.000418 and the solubility (mole fraction) (in ethanol, 333.15 K) was 0.000493. It also gave a solubility (mole fraction) (in methanol, 278.15 K) of 0.000532, a solubility (mole fraction) (in methanol, 283.15 K) of 0.000593 and a solubility (mole fraction) (in methanol, 288.15 K) of 0.000665. It also gave a solubility (mole fraction) (in methanol, 293.15 K) of 0.00074, a solubility (mole fraction) (in methanol, 298.15 K) of 0.000832 and a solubility (mole fraction) (in methanol, 303.15 K) of 0.000939. For the same compound, the solubility (mole fraction) (in methanol, 308.15 K) was 0.00107, the solubility (mole fraction) (in methanol, 313.15 K) was 0.0012 and the solubility (mole fraction) (in methanol, 318.15 K) was 0.00136. For the same compound, the solubility (mole fraction) (in methanol, 323.15 K) was 0.00155, the solubility (mole fraction) (in methanol, 328.15 K) was 0.00175 and the solubility (mole fraction) (in methanol, 333.15 K) was 0.002. It also gave a solubility (mole fraction) (in water, 278.15 K) of 0.000338, a solubility (mole fraction) (in water, 283.15 K) of 0.000408 and a solubility (mole fraction) (in water, 288.15 K) of 0.000483. It also gave a solubility (mole fraction) (in water, 293.15 K) of 0.000581, a solubility (mole fraction) (in water, 298.15 K) of 0.000701 and a solubility (mole fraction) (in water, 303.15 K) of 0.000836. The solubility (mole fraction) (in water, 308.15 K) was 0.00102, the solubility (mole fraction) (in water, 313.15 K) was 0.00123 and the solubility (mole fraction) (in water, 318.15 K) was 0.0015. For the same compound, the solubility (mole fraction) (in water, 323.15 K) was 0.00182, the solubility (mole fraction) (in water, 328.15 K) was 0.00224 and the solubility (mole fraction) (in water, 333.15 K) was 0.00274.
